Measured values: US8722582B2, “Thermodynamically stable crystal modification of 2-({2-chloro-4-(methylsulfonyl)-3-[(2,2,2-trifluoroethoxy)methyl]phenyl} carbonyl)cyclohexane-1,3-dione” (Bayer Cropscience AG, priority 2007, dated 2014)

Legend:
[1] = Stability test: storage of an oil dispersion; format: physicochemical; details: oil dispersion of tembotrione; after several weeks of storage; compared to oil dispersion of crystal modification II, III or a mixture thereof
[2] = Tests in practice of suspension formulations; format: physicochemical; details: tembotrione finely ground in solid form, spontaneously or over a relatively long period of time
Excerpt: Tembotrione, which is known, for example, from WO 00/21924 (example No. 3 in table 1), has herbicidal properties and is suitable for preparing crop protection compositions used for weed control. […] User-friendly presentation forms are, for example, suspension formulations in which tembotrione is present finely ground in solid form. […] The crystal growth may occur spontaneously or over a relatively long period of time and is unpredictable.

| Compound | signs of agglomeration and precipitation on storage [1] | crystal growth, agglomeration and precipitation in suspension formulation [2] |
| --- | --- | --- |
| CS(=O)(=O)c1ccc(C(=O)C2C(=O)CCCC2=O)c(Cl)c1COCC(F)(F)F [crystal modification I, 2-({2-chloro-4-(methylsulfonyl)-3-[(2,2,2-trifluoroethoxy)methyl]phenyl}carbonyl)cyclohexan-1,3-dione] | no signs of agglomeration and precipitation |  |
| CS(=O)(=O)c1ccc(C(=O)C2C(=O)CCCC2=O)c(Cl)c1COCC(F)(F)F [tembotrione, 2-({2-chloro-4-(methylsulfonyl)-3-[(2,2,2-trifluoroethoxy)methyl]phenyl}carbonyl)cyclohexan-1,3-dione] |  | leads to crystal growth and, as a consequence thereof, to agglomeration and precipitation |
